Here are results for 17 compounds from ChEMBL document CHEMBL1156419, “Inhibition of metalloprotease botulinum serotype A from a pseudo-peptide binding mode to a small molecule that is active in primary neurons” (J Biol Chem, 2007).

In data set [1] the target is Botulinum neurotoxin type A (Clostridium botulinum (strain Hall / ATCC 3502 / NCTC 13319 / Type A), UniProt P0DPI1). The data set is described as follows: Inhibition of BoNT/A light chain metalloprotease activity.
A short description of data set [2]: Cytotoxicity in embryonic chicken spinal neurons at 1 to 5 uM after 3.5 hrs. Also noted: species or system Gallus gallus.

Where a SMILES comes first, the peptide text is derived from it. The star is where a group is joined. Propanoyl(2S-SH,3-Ph) = O=C([C@@H](S)Cc1ccccc1)*; X1 = O=C([C@H](S)Cc1ccccc1)* Bounds are passed on as bounds.

Usually Ki stands for the dissociation constant of the complex between target and ligand, obtained from inhibition or displacement. A low value points to a stronger hold on the target.

Chain of Botulinum neurotoxin type A (P0DPI1 2-448 limits assumed): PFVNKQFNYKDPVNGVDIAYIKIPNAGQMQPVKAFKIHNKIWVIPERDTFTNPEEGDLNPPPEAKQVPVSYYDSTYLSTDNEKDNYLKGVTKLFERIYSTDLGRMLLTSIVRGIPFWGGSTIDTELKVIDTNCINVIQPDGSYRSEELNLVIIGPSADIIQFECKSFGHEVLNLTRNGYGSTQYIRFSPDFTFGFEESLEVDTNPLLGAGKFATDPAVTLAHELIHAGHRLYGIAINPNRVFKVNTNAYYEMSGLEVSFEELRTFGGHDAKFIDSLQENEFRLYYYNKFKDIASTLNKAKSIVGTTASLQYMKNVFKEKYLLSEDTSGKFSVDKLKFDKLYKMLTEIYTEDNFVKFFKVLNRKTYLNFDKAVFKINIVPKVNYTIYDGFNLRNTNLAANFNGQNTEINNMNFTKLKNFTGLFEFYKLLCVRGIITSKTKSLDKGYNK

The compound `C[C@H](NC(=O)[C@H](CCCNC(=N)N)NC(=O)[C@@H](S)Cc1ccccc1)C(=O)N[C@H](C(=O)N[C@@H](CCCCN)C(=O)O)[C@@H](C)O` ({Propanoyl(2S-SH,3-Ph)}-RATK-OH) gave a Ki in data set [1] of 4 µM. On the same count and under the same terms, the figure for `CSCC[C@H](NC(=O)[C@H](CCCCN)NC(=O)[C@H](C)NC(=O)[C@H](C)NC(=O)[C@H](CCCNC(=N)N)NC(=O)[C@@H](S)Cc1ccccc1)C(=O)N[C@@H](CC(C)C)C(=O)O` ({Propanoyl(2S-SH,3-Ph)}-RAAKML-OH) is 0.7 µM; for `C(=C\c1cc2ccc(C3=NCCN3)cc2[nH]1)/c1ccc2cc(C3=NCCN3)[nH]c2c1` it is 10 µM. In data set [1], `N=C(N)c1ccc2oc(/C=C/C=C/C=C/c3cc4cc(C(=N)N)ccc4o3)cc2c1` gave a Ki of 6 µM. Moreover, the Activity result in data set [2] is given as “Toxic”. Turning to `CSCC[C@H](NC(=O)[C@H](CCCCN)NC(=O)[C@@H](NC(=O)[C@H](C)NC(=O)[C@H](CCCN=C(N)N)NC(=O)[C@@H](S)Cc1ccccc1)[C@@H](C)O)C(=O)O` ({Propanoyl(2S-SH,3-Ph)}-RATKM-OH), the inhibitory constant (Ki) in data set [1] worked out at 0.4 µM. Still for that read-out and setting: the figure for `C[C@H](NC(=O)[C@H](CCCNC(=N)N)NC(=O)[C@@H](S)Cc1ccccc1)C(=O)N[C@H](C(=O)O)[C@@H](C)O` is 30 µM; for `CC(C)C[C@H](NC(=O)[C@H](C)NC(=O)[C@H](CCCCN)NC(=O)[C@@H](NC(=O)[C@H](C)NC(=O)[C@H](CCCNC(=N)N)NC(=O)[C@@H](S)Cc1ccccc1)[C@@H](C)O)C(=O)O` ({Propanoyl(2S-SH,3-Ph)}-RATKAL-OH) it is 0.7 µM. Still for that read-out and setting: the figure for `CSCC[C@H](NC(=O)[C@H](CCCCN)NC(=O)[C@@H](NC(=O)[C@@H](NC(=O)[C@H](CCCN=C(N)N)NC(=O)[C@@H](S)Cc1ccccc1)C(C)C)[C@@H](C)O)C(=O)N[C@@H](CC(C)C)C(=O)O` ({Propanoyl(2S-SH,3-Ph)}-RVTKML-OH) is 2 µM. Same read-out and setting: the figure for `CSCC[C@H](NC(=O)[C@H](CCCCN)NC(=O)[C@@H](NC(=O)[C@H](C)NC(=O)[C@H](CCCNC(=N)N)NC(=O)[C@@H](S)Cc1ccccc1)[C@@H](C)O)C(=O)N[C@@H](CC(C)C)C(=O)NCC(=O)N[C@@H](CO)C(=O)NCC(=O)O` ({Propanoyl(2S-SH,3-Ph)}-RATKMLGSG-OH) is 0.3 µM; for `CSCC[C@H](NC(=O)[C@H](CCCCN)NC(=O)[C@@H](NC(=O)[C@H](C)NC(=O)[C@H](CCCCN)NC(=O)[C@@H](S)Cc1ccccc1)[C@@H](C)O)C(=O)N[C@@H](CC(C)C)C(=O)O` ({Propanoyl(2S-SH,3-Ph)}-KATKML-OH) it is above 300 µM; for `CSCC[C@H](NC(=O)[C@H](CCCCN)NC(=O)[C@@H](NC(=O)[C@H](C)NC(=O)[C@H](CCCNC(=N)N)NC(=O)[C@H](S)Cc1ccccc1)[C@@H](C)O)C(=O)N[C@@H](CC(C)C)C(=O)O` (X1-RATKML-OH) it is 8 µM. `N=C(N)N/N=C/c1ccc(-c2cc3ccc(/C=N/NC(=N)N)cc3s2)cc1` displayed a Ki in data set [1] of 3 µM. Besides, the Activity entry in data set [2] is “Toxic”. `CSCC[C@H](NC(=O)[C@H](CCCCN)NC(=O)[C@@H](NC(=O)[C@H](C)NC(=O)[C@H](CCCNC(=N)N)NC(=O)[C@@H](S)Cc1ccccc1)[C@@H](C)O)C(=O)N[C@@H](CC(C)C)C(=O)O` ({Propanoyl(2S-SH,3-Ph)}-RATKML-OH) returned a Ki in data set [1] of 0.3 µM. Still for that read-out and setting: the figure for `NC(N)=NCCC[C@H](NC(=O)[C@@H](S)Cc1ccccc1)C(=O)O` is 60 µM; for `CSCC[C@H](NC(=O)[C@H](CCCCN)NC(=O)[C@@H](NC(=O)[C@H](C)NC(=O)[C@H](CCCNC(=N)N)NC(=O)[C@@H](N)CS)[C@@H](C)O)C(=O)N[C@@H](CC(C)C)C(=O)O` (H-CRATKML-OH) it is 2 µM; for `C[C@H](NC(=O)[C@H](CCCNC(=N)N)NC(=O)[C@@H](S)Cc1ccccc1)C(=O)O` it is 60 µM.

On to `CSCC[C@H](NC(=O)[C@H](C)NC(=O)[C@@H](NC(=O)[C@H](C)NC(=O)[C@H](CCCN=C(N)N)NC(=O)[C@@H](S)Cc1ccccc1)[C@@H](C)O)C(=O)N[C@@H](CC(C)C)C(=O)O` ({Propanoyl(2S-SH,3-Ph)}-RATAML-OH), for which the Ki in data set [1] was found to be 3 µM. This Ki lies about 20-fold lower than the previous one.
